Assay results: patent publication US11628181B2, “N4-hydroxycytidine and derivatives and anti-viral uses related thereto” (Emory University, priority 2014, dated 2023)
Like-named read-outs stand apart in the source and are kept apart here.

Key:
CHIKV = test: microbe, parasite or virus in culture; conditions: Chikungunya virus
U2OS cell line = test: Cell viability, U2OS cell line (Chikungunya screen)
Chikungunya virus = Chikungunya virus (MOI 0.5) viral inhibition in U2OS cell line; format: cell-based; conditions: for inhibition at 10 µM: read-out: Viral Inh. 10 uM; for inhibition at 50 µM: read-out: Viral Inh. 50 uM
HeLa = conditions: human
VEEV [1] = test: microbe, parasite or virus in culture; format: cell-based; conditions: Venezuelan equine encephalitis virus, HeLa; for inhibition at 10 µM: read-out: Viral Inh. 10 uM; for inhibition at 50 µM: read-out: Viral Inh. 50 uM
VEEV [2] = test: microbe, parasite or virus in culture; format: cell-based; conditions: Venezuelan equine encephalitis virus, Astrocyte; for inhibition at 10 µM: read-out: Viral Inh. 10 uM; for inhibition at 50 µM: read-out: Viral Inh. 50 uM

Work on C[C@@]1(O)C2OP(=O)(Oc3ccccc3)OC[C@H]2O[C@H]1n1ccc(=O)[nH]c1=O (stereo partly shown) [EIDD-01872-01] yielded a CC50 (in vitro) of over 500 µM and an EC50 (CHIKV) of over 78 µM.
Molecule NNc1ccn([C@@H]2O[C@H](CO)C(O)[C@@H]2O)c(=O)n1 (stereo partly shown) [EIDD-01910-01] has a CC50 (in vitro) of over 500 µM and an EC50 (CHIKV) of over 78 µM.
CC1(F)[C@@H](O)[C@@H](CO)O[C@H]1n1ccc(NO)nc1=O (stereo partly shown) [EIDD-02080-01] showed a CC50 (in vitro) of over 500 µM and an EC50 (CHIKV) of over 75 µM.
Molecule O=c1nc(NO)ccn1[C@@H]1O[C@H](CO)[C@H](O)C1F (stereo partly shown) [EIDD-02085-01] has a CC50 (in vitro) of over 500 µM and an EC50 (CHIKV) of over 75 µM.
In the case of CCCCCCCNC(=O)ONc1ccn([C@@H]2O[C@H](CO)[C@H](O)C2O)c(=O)n1 (stereo partly shown) [EIDD-02107-01], the CC50 (in vitro) is reported as 165 µM and the EC50 (CHIKV) is reported as 29 µM.
CCCCCCCCCCCCCCCCOCCCOP(=O)(O)OC[C@H]1O[C@@H](n2ccc(NO)nc2=O)[C@@H](O)C1O (stereo partly shown) [EIDD-02108-03] showed a CC50 (in vitro) of 98 µM and an EC50 (CHIKV) of 34.5 µM.
With CC(C)(C)C(=O)OCOP(=O)(OCOC(=O)C(C)(C)C)OC[C@@]1(N=[N+]=[N-])O[C@@H](n2ccc(=O)[nH]c2=O)[C@@H](O)C1O (stereo partly shown) [EIDD-02110-03] the CC50 (in vitro) was 387 µM and the EC50 (CHIKV) was 56 µM.
Molecule O=c1nc(NO)ccn1[C@@H]1O[C@H](CO)C(O)[C@@H]1O (stereo partly shown) [EIDD-02200-01] has a CC50 (in vitro) of over 500 µM and an EC50 (CHIKV) of over 78 µM.
Work on O=c1nc(NO)ccn1[C@@H]1O[C@H](COP2(=O)OCc3ccccc3O2)C(O)[C@@H]1O (stereo partly shown) [EIDD-02207-01] yielded a CC50 (in vitro) of over 500 µM and an EC50 (CHIKV) of 10.8 µM.
[2H]c1cn([C@@H]2O[C@H](CO)C(O)[C@@H]2O)c(=O)nc1NO (stereo partly shown) [EIDD-02261-01] gave a CC50 (in vitro) of over 500 µM and an EC50 (CHIKV) of 1.5 µM.
Work on C#C[C@@]1(O)C(O)[C@@H](COP(=O)(OCOC(=O)C(C)(C)C)OCOC(=O)C(C)(C)C)O[C@H]1n1ccc(=O)[nH]c1=O (stereo partly shown) [EIDD-02290-01] yielded a CC50 (in vitro) of 274 µM and an EC50 (CHIKV) of 64.4 µM.
O=c1ccn([C@@H]2O[C@H](CO)C(O)[C@]23CC3(F)F)c(=O)[nH]1 (stereo partly shown) [EIDD-02339-01] gave a CC50 (in vitro) of over 500 µM and an EC50 (CHIKV) of over 78 µM.
Work on O=c1ccn([C@@H]2O[C@H](CO)C(O)[C@@]23CC3(F)F)c(=O)[nH]1 (stereo partly shown) [EIDD-02340-01] yielded a CC50 (in vitro) of over 500 µM and an EC50 (CHIKV) of over 78 µM.
Work on [2H]C([2H])(O)[C@H]1O[C@@H](n2ccc(NO)nc2=O)[C@@H](O)C1O (stereo partly shown) [EIDD-02345-01] yielded a CC50 (in vitro) of over 500 µM and an EC50 (CHIKV) of 1.5 µM.
Molecule CCCCCCCCCCCCCCCCNC(=O)ONc1ccn([C@@H]2O[C@H](CO)[C@H](O)C2O)c(=O)n1 (stereo partly shown) [EIDD-02356-01] has a CC50 (in vitro) of 211 µM and an EC50 (CHIKV) of over 78 µM.
For CCCCCCCCCCCCCCCCCCNC(=O)ONc1ccn([C@@H]2O[C@H](CO)[C@H](O)C2O)c(=O)n1 (stereo partly shown) [EIDD-02357-01], the CC50 (in vitro) was 90 µM and the EC50 (CHIKV) was over 78 µM.
Molecule CC(C)(C)C(=O)OCOP(=O)(OCOC(=O)C(C)(C)C)OC[C@H]1O[C@@H](n2ccc(=O)[nH]c2=O)[C@](C)(O)C1O (stereo partly shown) [EIDD-02416-01] has a CC50 (in vitro) of 53 µM and an EC50 (CHIKV) of 27 µM.
Molecule CNC(=O)ONc1ccn([C@@H]2O[C@H](CO)C(O)[C@@H]2O)c(=O)n1 (stereo partly shown) [EIDD-02422-01] has a CC50 (in vitro) of over 500 µM and an EC50 (CHIKV) of 32 µM.
With CN(C)C(=O)ONc1ccn([C@@H]2O[C@H](CO)[C@H](O)C2O)c(=O)n1 (stereo partly shown) [EIDD-02423-01] the CC50 (in vitro) was over 500 µM and the EC50 (CHIKV) was 25 µM.
CC(C)(C)C(=O)OCOP(=O)(OCOC(=O)C(C)(C)C)OC[C@H]1O[C@@H](n2ccc(=O)[nH]c2=O)[C@](C)(F)C1O (stereo partly shown) [EIDD-02427-01] gave a CC50 (in vitro) of 355 µM and an EC50 (CHIKV) of 58 µM.
CCCCCCCOC(=O)OC[C@H]1O[C@@H](n2ccc(NO)nc2=O)C(O)[C@H]1O (stereo partly shown) [EIDD-02474-01] gave a CC50 (in vitro) of 184 µM and an EC50 (CHIKV) of 0.07 µM.
In the case of CCCCCCCNC(=O)OC[C@H]1O[C@@H](n2ccc(NO)nc2=O)C(O)[C@H]1O (stereo partly shown) [EIDD-02475-01], the CC50 (in vitro) is reported as over 500 µM and the EC50 (CHIKV) is reported as over 78 µM.
Work on CCCCCCCCC(=O)OC[C@H]1O[C@@H](n2ccc(NO)nc2=O)C(O)[C@H]1O (stereo partly shown) [EIDD-02476-01] yielded a CC50 (in vitro) of 154 µM and an EC50 (CHIKV) of 0.3 µM.
For CCOP(=O)(OCC)OC[C@H]1O[C@@H](n2ccc(NO)nc2=O)[C@@H](O)C1O (stereo partly shown) [EIDD-02503-01], the CC50 (in vitro) was over 500 µM and the EC50 (CHIKV) was over 78 µM.
In the case of O=c1nc(NO)cc[nH]1 [EIDD-02504-01], the CC50 (in vitro) is reported as over 500 µM and the EC50 (CHIKV) is reported as over 78 µM.
In the case of O=c1nc(NO)ccn1[C@@H]1O[C@H](CO)C(O)C1O (stereo partly shown) [drawing 73], the “Cell Viability 10 uM” value (U2OS cell line) is reported as 97% ± 5% (n = 4), the “Cell Viability 50 uM” value (U2OS cell line) is reported as 79% ± 10% (n = 4) and the inhibition at 10 µM (Chikungunya virus) is reported as 80%. It also gave an inhibition at 50 µM (Chikungunya virus) of 100%.
With CCCCCCCOC(=O)ONc1ccn([C@@H]2O[C@H](CO)C(O)C2O)c(=O)n1 (stereo partly shown) [drawing 74] the “Cell Viability 10 uM” value (U2OS cell line) was 93% ± 4% (n = 4), the “Cell Viability 50 uM” value (U2OS cell line) was 79% ± 8% (n = 4) and the inhibition at 10 µM (Chikungunya virus) was 72%. For the same molecule, the inhibition at 50 µM (Chikungunya virus) was 98%.
With CC(C)OC(=O)[C@H](C)NP(=O)(OC[C@H]1O[C@@H](n2ccc(NO)nc2=O)C(O)C1O)Oc1ccccc1 (stereo partly shown) [drawing 75] the “Cell Viability 10 uM” value (U2OS cell line) was 99% ± 6% (n = 4), the “Cell Viability 50 uM” value (U2OS cell line) was 99% ± 8% (n = 4) and the inhibition at 10 µM (Chikungunya virus) was 3%. For the same molecule, the inhibition at 50 µM (Chikungunya virus) was 36%.
In the case of O=c1nc(NO)c(F)cn1[C@@H]1O[C@H](CO)C(O)C1O (stereo partly shown) [drawing 76], the “Cell Viability 10 uM” value (U2OS cell line) is reported as 81% ± 4% (n = 4), the “Cell Viability 50 uM” value (U2OS cell line) is reported as 53% ± 2% (n = 4) and the inhibition at 10 µM (Chikungunya virus) is reported as 8%. For the same molecule, the inhibition at 50 µM (Chikungunya virus) was 51%.
With CCCCCCCNC(=O)ONc1ccn([C@@H]2O[C@H](CO)C(O)C2O)c(=O)n1 (stereo partly shown) [drawing 77] the “Cell Viability 10 uM” value (U2OS cell line) was 105% ± 2% (n = 4), the “Cell Viability 50 uM” value (U2OS cell line) was 96% ± 11% (n = 4) and the inhibition at 10 µM (Chikungunya virus) was 14%. The inhibition at 50 µM (Chikungunya virus) was 70%.
With O=c1nc(NO)ccn1[C@@H]1O[C@H](CO)C(O)C1O (stereo partly shown) [drawing 78] the “Cell Viability 10 uM” value (HeLa) was 116% ± 24% (n = 4), the “Cell Viability 50 uM” value (HeLa) was 61% ± 8% (n = 4) and the EC50 (VEEV [1]) was 1.24 µM. For the same molecule, the inhibition at 10 µM (VEEV [1]) was 100% and the inhibition at 50 µM (VEEV [1]) was 100%.
With CCCCCCCOC(=O)ONc1ccn([C@@H]2O[C@H](CO)C(O)C2O)c(=O)n1 (stereo partly shown) [drawing 79] the “Cell Viability 10 uM” value (HeLa) was 116% ± 20% (n = 4), the “Cell Viability 50 uM” value (HeLa) was 85% ± 8% (n = 4) and the EC50 (VEEV [1]) was 0.57 µM. It also gave an inhibition at 10 µM (VEEV [1]) of 100% and an inhibition at 50 µM (VEEV [1]) of 100%.
In the case of CC(C)OC(=O)[C@H](C)NP(=O)(OC[C@H]1O[C@@H](n2ccc(NO)nc2=O)C(O)C1O)Oc1ccccc1 (stereo partly shown) [drawing 80], the “Cell Viability 10 uM” value (HeLa) is reported as 137% ± 16% (n = 4), the “Cell Viability 50 uM” value (HeLa) is reported as 134% ± 16% (n = 4) and the EC50 (VEEV [1]) is reported as 16.2 µM. The inhibition at 10 µM (VEEV [1]) was 73% and the inhibition at 50 µM (VEEV [1]) was 100%.
For O=c1nc(NO)c(F)cn1[C@@H]1O[C@H](CO)C(O)C1O (stereo partly shown) [drawing 81], the “Cell Viability 10 uM” value (HeLa) was 55% ± 4% (n = 4), the “Cell Viability 50 uM” value (HeLa) was 36% ± 2% (n = 4) and the inhibition at 10 µM (VEEV [1]) was 61%. For the same molecule, the inhibition at 50 µM (VEEV [1]) was 98%.
With CCCCCCCNC(=O)ONc1ccn([C@@H]2O[C@H](CO)C(O)C2O)c(=O)n1 (stereo partly shown) [drawing 82] the “Cell Viability 10 uM” value (HeLa) was 151% ± 16% (n = 4), the “Cell Viability 50 uM” value (HeLa) was 126% ± 7% (n = 4) and the EC50 (VEEV [1]) was 6 µM. The inhibition at 10 µM (VEEV [1]) was 93% and the inhibition at 50 µM (VEEV [1]) was 100%.
With O=c1nc(NO)ccn1[C@@H]1O[C@H](CO)C(O)C1O (stereo partly shown) [drawing 83] the “Cell Viability 10 uM” value (Astrocytes) was 98% ± 12% (n = 3), the “Cell Viability 50 uM” value (Astrocytes) was 86% ± 5% (n = 3) and the inhibition at 10 µM (VEEV [2]) was 99%. It also gave an inhibition at 50 µM (VEEV [2]) of 100%.
For CCCCCCCOC(=O)ONc1ccn([C@@H]2O[C@H](CO)C(O)C2O)c(=O)n1 (stereo partly shown) [drawing 84], the “Cell Viability 10 uM” value (Astrocytes) was 99% ± 9% (n = 3), the “Cell Viability 50 uM” value (Astrocytes) was 94% ± 10% (n = 3) and the inhibition at 10 µM (VEEV [2]) was 94%. The inhibition at 50 µM (VEEV [2]) was 100%.
In the case of CC(C)OC(=O)[C@H](C)NP(=O)(OC[C@H]1O[C@@H](n2ccc(NO)nc2=O)C(O)C1O)Oc1ccccc1 (stereo partly shown) [drawing 85], the “Cell Viability 10 uM” value (Astrocytes) is reported as 102% ± 16% (n = 3), the “Cell Viability 50 uM” value (Astrocytes) is reported as 100% ± 17% (n = 3) and the inhibition at 10 µM (VEEV [2]) is reported as 49%. The inhibition at 50 µM (VEEV [2]) was 96%.
